# Laboratory results taken from patent publication US9567339B2, “Primary carboxamides as BTK inhibitors” (AbbVie Inc., priority 2013, dated 2017).
# Molecular target: BTK, recombinant human catalytic domain (aa 393-659) (Homo sapiens (Human), UniProt Q06187)
# Experiment: In vitro BTK kinase activity measured by time-resolved fluorescence resonance energy transfer (trFRET)
# Assay type: biochemical
# Conditions: trFRET, 0.001 mM ATP, biotin-TYR1 peptide substrate; read-out: Btk IC50
# Chain of BTK, recombinant human catalytic domain (aa 393-659) (Q06187 393-659): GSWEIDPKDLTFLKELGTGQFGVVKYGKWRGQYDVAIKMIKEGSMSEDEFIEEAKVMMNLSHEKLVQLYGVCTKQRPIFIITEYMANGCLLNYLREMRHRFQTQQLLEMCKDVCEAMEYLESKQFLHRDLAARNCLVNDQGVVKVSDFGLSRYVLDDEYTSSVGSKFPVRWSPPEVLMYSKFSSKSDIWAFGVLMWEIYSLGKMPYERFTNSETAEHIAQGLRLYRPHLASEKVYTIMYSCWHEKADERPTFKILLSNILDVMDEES
row,Structure (SMILES),IC50 [µM]
1,"C=CC(=O)N[C@@H]1CCC[C@H](c2ccc(C(N)=O)c3[nH]ccc23)C1 (relative stereo) [Example 8, 4-(cis-3-Acrylamidocyclohexyl)-1H-indole-7-carboxamide]",< 0.1
2,"C=CC(=O)N[C@H]1CCC[C@H](c2ccc(C(N)=O)c3[nH]ccc23)C1 (relative stereo) [Example 9, 4-(trans-3-Acrylamidocyclohexyl)-1H-indole-7-carboxamide]",0.1 to 1
3,"C=CC(=O)N[C@@H]1CC[C@H](c2ccc(C(N)=O)c3[nH]ccc23)C1 (relative stereo) [Example 10, 4-(cis-3-Acrylamidocyclopentyl)-1H-indole-7-carboxamide]",< 0.1
4,"C=CC(=O)N[C@H]1CC[C@H](c2ccc(C(N)=O)c3[nH]ccc23)C1 (relative stereo) [Example 11, 4-(trans-3-Acrylamidocyclopentyl)-1H-indole-7-carboxamide]",< 0.1
5,"CS(=O)(=O)N1CC=C(c2cc3c(N4CC[C@@H](O)[C@H](NC(=O)c5nccs5)C4)ccc(C(N)=O)c3[nH]2)CC1 (relative stereo) [O.1, N-(trans-1-(7-carbamoyl-2-(1-(methylsulfonyl)-1,2,3,6-tetrahydropyridin-4-yl)-1H-indol-4-yl)-4-hydroxypiperidin-3-yl)thiazole-2-carboxamide]",< 0.1
6,"C=CC(=O)N1CC([C@@H](C)c2ccc(C(N)=O)c3[nH]ccc23)C1 [28 (R), (R)-4-(1-(1-acryloylazetidin-3-yl)ethyl)-1H-indole-7-carboxamide]",< 0.1
7,"C=CC(=O)N1CC([C@H](C)c2ccc(C(N)=O)c3[nH]ccc23)C1 [28 (S), (S)-4-(1-(1-Acryloylazetidin-3-yl)ethyl)-1H-indole-7-carboxamide]",0.1 to 1
8,"C=CC(=O)N1CCC[C@H](c2ccc(C(N)=O)c3[nH]ccc23)C1 [30 (R), (R)-4-(1-Acryloylpiperidin-3-yl)-1H-indole-7-carboxamide]",0.1 to 1
9,"C=CC(=O)N1CCC[C@@H](c2ccc(C(N)=O)c3[nH]ccc23)C1 [30 (S), (S)-4-(1-acryloylpiperidin-3-yl)-1H-indole-7-carboxamide]",< 0.1
10,C=CC(=O)Nc1cccc(-c2ccc(C(N)=O)c3[nH]c(-c4c(C)noc4C)cc23)c1C [A.1.1],0.1 to 1
11,C=CC(=O)Nc1cccc(-c2ccc(C(N)=O)c3[nH]c(-c4ccnn4C4CCCCO4)cc23)c1C (centres unmarked) [A.1.2],< 0.1
12,C=CC(=O)Nc1cccc(-c2ccc(C(N)=O)c3[nH]c(-c4c(C)n[nH]c4C)cc23)c1C [A.1.3],0.1 to 1
13,C=CC(=O)Nc1cccc(-c2ccc(C(N)=O)c3[nH]c(-c4cccc(NC(C)=O)c4)cc23)c1C [A.1.15],< 0.1
14,C=CC(=O)Nc1cccc(-c2ccc(C(N)=O)c3[nH]c(-c4cccc(C(=O)OC)c4)cc23)c1C [A.1.19],< 0.1
15,C=CC(=O)Nc1cccc(-c2ccc(C(N)=O)c3[nH]c(-c4ccc(C(=O)OC)cc4)cc23)c1C [A.1.20],< 0.1
16,C=CC(=O)Nc1cccc(-c2ccc(C(N)=O)c3[nH]c(-c4ccc5c(c4)CCO5)cc23)c1C [A.1.21],< 0.1
17,C=CC(=O)Nc1cccc(-c2ccc(C(N)=O)c3[nH]c(-c4cccc(C(N)=O)c4)cc23)c1C [A.1.25],< 0.1
18,C=CC(=O)Nc1cccc(-c2ccc(C(N)=O)c3[nH]c(-c4cc(S(=O)(=O)N5CCCC5)ccc4C)cc23)c1C [A.1.28],0.1 to 1

row,Structure (SMILES),IC50 [µM]
1,C=CC(=O)Nc1cccc(-c2ccc(C(N)=O)c3[nH]c(-c4cccc(C(=O)N5CCN(C)CC5)c4)cc23)c1C [A.1.31],< 0.1
2,C=CC(=O)Nc1cccc(-c2ccc(C(N)=O)c3[nH]c(-c4ccc(C(=O)N(C)C)cc4)cc23)c1C [A.1.35],< 0.1
3,C=CC(=O)Nc1cccc(-c2ccc(C(N)=O)c3[nH]c(-c4ccc(C(=O)N5CCCC5)cc4)cc23)c1C [A.1.38],< 0.1
4,C=CC(=O)Nc1cccc(-c2ccc(C(N)=O)c3[nH]c(-c4ccc(C(=O)N5CCN(C)CC5)cc4)cc23)c1C [A.1.39],< 0.1
5,C=CC(=O)Nc1cccc(-c2ccc(C(N)=O)c3[nH]c(-c4ccccc4OC)cc23)c1C [A.1.43],< 0.1
6,C=CC(=O)Nc1cccc(-c2ccc(C(N)=O)c3[nH]c(-c4ccc(CN5CCOCC5)cc4)cc23)c1C [A.1.44],< 0.1
7,CC(=O)N1CC=C(c2cc3c(-c4cccc(-n5cnc6ccccc6c5=O)c4C)ccc(C(N)=O)c3[nH]2)CC1 [A.3.1],< 0.1
8,CC(=O)N1CC=C(c2cc3c(-c4cccc(-n5cnc6ccc(F)cc6c5=O)c4C)ccc(C(N)=O)c3[nH]2)CC1 [A.3.2],< 0.1
9,CC(=O)N1CC=C(c2cc3c(-c4cccc(NC(=O)c5ccc(C(C)(C)C)cc5)c4C)ccc(C(N)=O)c3[nH]2)CC1 [A.3.3],< 0.1
10,CC(=O)N1CC=C(c2cc3c(-c4cccc(NC(=O)c5cc6c(s5)CCCC6)c4C)ccc(C(N)=O)c3[nH]2)CC1 [A.3.5],< 0.1
11,CC(=O)N1CC=C(c2cc3c(-c4cccc(NC(=O)c5ccc(C6CC6)cc5)c4C)ccc(C(N)=O)c3[nH]2)CC1 [A.3.6],< 0.1
12,"CC(=O)N1CC=C(c2cc3c(-c4cccc(NC(=O)c5ccc(C(F)F)cc5)c4C)ccc(C(N)=O)c3[nH]2)CC1 [A.3.7, 2-(1-acetyl-1,2,3,6-tetrahydropyridin-4-yl)-4-(3-(4-(difluoromethyl)benzamido)-2-methylphenyl)-1H-indole-7-carboxamide]",< 0.1
13,CC(=O)N1CC=C(c2cc3c(-c4cccc(NC(=O)c5ccc(C(C)(C)C#N)cc5)c4C)ccc(C(N)=O)c3[nH]2)CC1 [A.3.8],< 0.1
14,C=CC(=O)NCc1cccc(-c2ccc(C(N)=O)c3[nH]c(C4=CCN(S(C)(=O)=O)CC4)cc23)c1 [A.4.1],< 0.1
15,"CS(=O)(=O)N1CC=C(c2cc3c(-c4ccccc4N)ccc(C(N)=O)c3[nH]2)CC1 [A.4.2, 4-(2-aminophenyl)-2-(1-(methylsulfonyl)-1,2,3,6-tetrahydropyridin-4-yl)-1H-indole-7-carboxamide]",< 0.1
16,C=CC(=O)Nc1ccccc1-c1ccc(C(N)=O)c2[nH]c(C3=CCN(S(C)(=O)=O)CC3)cc12 [A.4.3],< 0.1
17,CS(=O)(=O)N1CC=C(c2cc3c(-c4cccc(OCc5nccs5)c4)ccc(C(N)=O)c3[nH]2)CC1 [A.4.4],< 0.1

# Other lines, results leading:
row,IC50 [µM],Structure (SMILES)
1,< 0.1,C=CC(=O)Nc1cccc(-c2ccc(C(N)=O)c3[nH]c(-c4cnn(C(C)C)c4)cc23)c1C [A.1.4]
2,< 0.1,C=CC(=O)Nc1cccc(-c2ccc(C(N)=O)c3[nH]c(-c4cn(C)nc4C)cc23)c1C [A.1.5]
3,< 0.1,C=CC(=O)Nc1cccc(-c2ccc(C(N)=O)c3[nH]c(-c4cnn(CC)c4)cc23)c1C [A.1.6]
4,< 0.1,C=CC(=O)Nc1cccc(-c2ccc(C(N)=O)c3[nH]c(-c4cnn(CC(C)C)c4)cc23)c1C [A.1.7]
5,< 0.1,C=CC(=O)Nc1cccc(-c2ccc(C(N)=O)c3[nH]c(-c4cnn(CCN5CCOCC5)c4)cc23)c1C [A.1.8]
6,< 0.1,C=CC(=O)Nc1cccc(-c2ccc(C(N)=O)c3[nH]c(-c4cncnc4)cc23)c1C [A.1.10]
7,< 0.1,C=CC(=O)Nc1cccc(-c2ccc(C(N)=O)c3[nH]c(-c4ccnn4C)cc23)c1C [A.1.11]
8,< 0.1,C=CC(=O)Nc1cccc(-c2ccc(C(N)=O)c3[nH]c(-c4ccncc4)cc23)c1C [A.1.12]
9,< 0.1,C=CC(=O)Nc1cccc(-c2ccc(C(N)=O)c3[nH]c(-c4ccnc(OC)c4)cc23)c1C [A.1.13]
10,< 0.1,C=CC(=O)Nc1cccc(-c2ccc(C(N)=O)c3[nH]c(-c4cccc(C#N)c4)cc23)c1C [A.1.14]
11,< 0.1,C=CC(=O)Nc1cccc(-c2ccc(C(N)=O)c3[nH]c(-c4ccc(F)nc4)cc23)c1C [A.1.16]
12,< 0.1,C=CC(=O)Nc1cccc(-c2ccc(C(N)=O)c3[nH]c(-c4cccnc4F)cc23)c1C [A.1.17]
13,< 0.1,C=CC(=O)Nc1cccc(-c2ccc(C(N)=O)c3[nH]c(-c4cccnc4OC)cc23)c1C [A.1.18]
14,< 0.1,C=CC(=O)Nc1cccc(-c2ccc(C(N)=O)c3[nH]c(-c4cccc(OC)c4)cc23)c1C [A.1.22]
15,< 0.1,C=CC(=O)Nc1cccc(-c2ccc(C(N)=O)c3[nH]c(-c4ccc(OC)cc4)cc23)c1C [A.1.23]
16,< 0.1,C=CC(=O)Nc1cccc(-c2ccc(C(N)=O)c3[nH]c(-c4ccc(C)nc4)cc23)c1C [A.1.24]
17,< 0.1,C=CC(=O)Nc1cccc(-c2ccc(C(N)=O)c3[nH]c(-c4cccc(F)c4)cc23)c1C [A.1.26]
18,< 0.1,C=CC(=O)Nc1cccc(-c2ccc(C(N)=O)c3[nH]c(-c4cccc(N(C)C)c4)cc23)c1C [A.1.27]
19,< 0.1,C=CC(=O)Nc1cccc(-c2ccc(C(N)=O)c3[nH]c(-c4ccccc4F)cc23)c1C [A.1.29]
20,< 0.1,C=CC(=O)Nc1cccc(-c2ccc(C(N)=O)c3[nH]c(-c4ccc(N5CCOCC5)nc4)cc23)c1C [A.1.30]
21,< 0.1,C=CC(=O)Nc1cccc(-c2ccc(C(N)=O)c3[nH]c(-c4ccc(F)cc4)cc23)c1C [A.1.32]
22,< 0.1,C=CC(=O)Nc1cccc(-c2ccc(C(N)=O)c3[nH]c(-c4ccccc4)cc23)c1C [A.1.33]
23,< 0.1,C=CC(=O)Nc1cccc(-c2ccc(C(N)=O)c3[nH]c(-c4cccnc4)cc23)c1C [A.1.36]
24,< 0.1,C=CC(=O)Nc1cccc(-c2ccc(C(N)=O)c3[nH]c(-c4ccc(S(C)(=O)=O)cc4)cc23)c1C [A.1.40]
25,< 0.1,C=CC(=O)Nc1cccc(-c2ccc(C(N)=O)c3[nH]c(-c4ccc(OC)nc4)cc23)c1C [A.1.41]
26,< 0.1,C=CC(=O)Nc1cccc(-c2ccc(C(N)=O)c3[nH]c(-c4ccc(C#N)cc4)cc23)c1C [A.1.42]
27,< 0.1,C=CC(=O)Nc1cccc(-c2ccc(C(N)=O)c3[nH]c(-c4ccc(C(N)=O)cc4)cc23)c1C [A.1.45]
28,< 0.1,Cc1c(NC(=O)c2nccs2)cccc1-c1ccc(C(N)=O)c2[nH]c(-c3ccc(=O)n(C)c3)cc12 [A.2.1]
29,< 0.1,Cc1c(NC(=O)c2nccs2)cccc1-c1ccc(C(N)=O)c2[nH]c(-c3cnn(C)c3)cc12 [A.2.2]
30,< 0.1,CC(=O)N1CC=C(c2cc3c(-c4cccc(NC(=O)c5nccs5)c4C)ccc(C(N)=O)c3[nH]2)CC1 [A.3.4]
